{"source": "paper PMC7815092", "about": "“The role of posttranslational modifications in generating neo-epitopes that bind to rheumatoid arthritis-associated HLA-DR alleles and promote autoimmune T cell responses” (PLoS ONE, 2021)", "key": {"HLA-DR1 (DRB1*01:01)": {"biological_target": "T1, HLA-DR1 (DRB1*01:01) (Homo sapiens, UniProt P01903+P01911, A100R/D57E/F55L/F60I/F76Y/I96L/L162R/M171V/P40L/Q125E/R42F/V115G/Y59C)", "T1 construct": "a new stop codon was inserted immediately prior to the transmembrane domain; made in house; host or cells: Drosophila S2 cells, vector pRmHA-3, secreted, purified on an L227 antibody column", "assay": "Competitive peptide binding assay to soluble HLA-DR1", "details": "competition with 0.5 nM biotinylated CII(257–274), 10 nM soluble DR1, 18 h at 37° C, time resolved fluorescence; duplicate, representative of 3 experiments", "source_text": "(§1) Soluble DR1 and DR4 were purified from culture supernatants of S2 drosophila cells transfected with DRB1*0101 or DRB1*0401 and DRA1*0101 as described previously. The cytoplasmic and transmembrane portions of these molecules were deleted from the cDNA using PCR, a new stop codon was inserted immediately prior to the transmembrane domain, and the resulting cDNA was cloned into the drosophila expression vector pRmHA-3. S2 cells were transfected with a 10:10:1 ratio of DRB1:DRA1:pUChsNeo using calcium phosphate precipitation. Soluble DR production was induced by 1 mM CuSO4, and 5 days later the culture supernatant was collected and adjusted to 0.05% octyl glucoside (OcG). Soluble DR was purified by passage of the supernatant over an affinity column coupled with the anti-DR antibody L227. The column was washed with 0.05% OcG and 0.15 M NaCl in phosphate buffer (PB), pH 7.5, followed by 0.05% OcG and 0.5M NaCl in PB, pH 7.5. DR was eluted with 100 mM Tris, 0.5M NaCl, pH 11.2, and the fractions were immediately neutralized with acetic acid. Recovered DR protein was concentrated using an EMD Millipore stirred cell with a YM30 disc membrane (Beverly, MA) and quantitated by OD 280 nm absorption and SDS-PAGE prior to use.\n(§2) For binding assays, a 10 nM solution of purified DR1 or DR4 was incubated for 18 h at 37° C with CII(257–274) peptide (0.5 nM) that had been labeled at the NH2 terminus with biotin as previously described. Various concentrations of peptides were added as competitors to the CII peptide binding. Bound peptides were separated from free peptides by immobilizing the DR molecules on microtiter plates coated with the monoclonal antibody L227 and subsequent washing. The antibody was adhered to the plate by an overnight incubation of a 10 μg/ml solution at 4° C. Bound biotinylated peptides were detected by incubation with streptavidin-europium followed by a chelating enhancement solution. Time resolved fluorescence was quantitated using a microplate fluorometer (FluoroMark, Bio-Rad, Hercules, CA), and data are expressed as relative fluorescence units measured. The 50% inhibitory concentration values (IC50) values were calculated from the binding curves and graphed as 1/IC50 to indicate affinity relative to the control peptide. Each binding assay was performed in duplicate, and data are representative of 3 experiments.\n(§3) Fig 1 Measurement of peptide binding to DRB1*01:01. 10 nM of soluble DR1 was incubated for 18 h at 37° C with 0.5 nM of biotinylated CII(257–274) peptide and various concentrations of WT and Cit-peptides as competitors. Bound peptides were separated from free peptides by immobilizing the DR molecules with an antibody on microtiter plates. Bound biotinylated peptide was detected by incubation with streptavidin-europium. Time resolved fluorescence was quantitated and data are expressed as relative fluorescence units measured. Each binding assay was performed in duplicate, and data are representative of 3 experiments."}, "HLA-DR4 (DRB1*04:01)": {"biological_target": "T2, HLA-DR4 (DRB1*04:01) (Homo sapiens, UniProt P01903+P01911, A100K/A169T/F76Y/I96L/K127E/L162R/M171V/N62H/P40V/Q125Y/R42H/S133A/S149N/S66Y/V115G/V209L/W38E)", "T2 construct": "a new stop codon was inserted immediately prior to the transmembrane domain; made in house; host or cells: Drosophila S2 cells, vector pRmHA-3, secreted, purified on an L227 antibody column", "assay": "Competitive peptide binding assay to soluble HLA-DR4", "details": "for IC50: competition with 0.5 nM biotinylated CII(257–274), 10 nM soluble DR4, 18 h at 37° C", "source_text": "as §1, §2\nas §3, with “Fig 2” for “Fig 1”, “to DRB1*04:01.” for “to DRB1*01:01.”, “soluble DR4” for “soluble DR1”"}, "[1]": {"test_system": "B6.DR1 (HLA-DRB1*01:01 transgenic) mice", "assay": "Induction of autoimmune arthritis in HLA-DR1 transgenic mice", "type": "in vivo, mouse", "experimental": "Citrullinated CII (Cit-CII) was produced using the method described by Lundberg et al. and Burkhardt et al.. 4 ml of CII at 0.25 mg/ml was dialyzed against citrullination buffer (0.1 M Tris-HCl pH 7.6, 10 mM CaCl2, 5 mM DTT), and 6.7 μl (8.5 μg, 33.4 U) of PAD4 (human recombinant, Cayman Chemical) was used to induce citrullination. Sham Cit-CII was produced using the same procedure without the PAD4 enzyme.\nFor arthritis induction and T cell proliferation assays, 8 to 10 week old mice were immunized subcutaneously at the base of the tail with 100 μg of peptide or bovine CII emulsified in equal volumes of CFA consisting of 85% heavy paraffin oil (Fisher Scientific), 15% mannide mono-oleate (Sigma), and 4 mg/ml of heat killed mycobacterium (H37Ra, Difco). For arthritis studies, mice were examined 3 times per week starting at day 18 after immunization and the presence of arthritis, number of affected limbs, and the severity were assessed. Severity of disease was evaluated by visual inspection and assigned a score using a scale of 0 to 4 based on the degree of inflammation as described.\nFig 8 Induction of autoimmune arthritis in HLA-DR1 mice with WT CII and Cit-CII. B6.DR1 mice were immunized with native CII or Cit-CII and the incidence (panel A) and severity (panels B, C, and D) of arthritis were monitored. […]"}, "[2]": {"test_system": "lymph node T cells from B6.DR1 mice", "assay": "Cytokine production by WT or Cit-peptide stimulated T cells (multiplexed bead assay)", "type": "cell-based, mouse", "parameters": "key to Cytokine WT/Cit Ratio, TNFα: “–” values the result of no cytokine detected from the Cit-Ag or both antigens", "details": "T cells of mice immunized with the immunogen, calculated from Fig 5; for Cytokine WT/Cit Ratio, TNFα: WT over Cit stimulation, “>” = no TNFα produced by Cit-Ag stimulation; for Cytokine WT/Cit Ratio, IFNγ / Cytokine WT/Cit Ratio, IL-6 / Cytokine WT/Cit Ratio, IL-10 / Cytokine WT/Cit Ratio, IL-17A: WT-stimulated over Cit-stimulated, supernatant 3 days", "experimental": "Cytokines produced by WT and Cit-peptide stimulated T cells were measured using a multiplexed bead assay (BioRad) and analyzed using a BioRad MagPix. B6.DR1 mice were immunized with WT or Cit-peptide, and 10 days later LN cells were recovered and re-stimulated with the corresponding WT peptide or Cit-peptide. Supernatants were collected 3 days after stimulation and assayed for expression of IFNγ, TNFα, IL-10, IL-17A, and IL-6. Standard curves were used to calculate cytokine concentration. Data are representative of two independent experiments and based on duplicate samples.\nFig 5 Cytokine production by T cells stimulated with WT or Cit-peptides. Supernatants from T cell proliferation assays in Fig 4 were collected 3 days after antigen stimulation and analyzed for the expression of proinflammatory cytokines. Cytokines produced were measured using a multiplexed bead assay and analyzed using a BioRad MagPix. Standard curves were used to calculate cytokine concentration. The cytokines produced by CII immunized T cells stimulated with the immunodominant epitope, CII(257–274), that drives autoimmune arthritis in the B6.DR1 model are shown for comparison (right panels). Data are representative of two independent experiments and based on duplicate samples."}}, "note": "Where a SMILES comes first, the peptide text is derived from it. Where no end group is shown, it is not given here. [ ]: non-standard residue; d: D form. Cit = NC(=O)NCCC[C@H](N)C(=O)O"}
{"molecule": "CC(C)C[C@H](NC(=O)[C@H](CC(C)C)NC(=O)[C@@H](NC(=O)[C@@H](N)C(C)C)C(C)C)C(=O)N[C@H](C(=O)N[C@@H](C)C(=O)N[C@H](C(=O)N[C@@H](CCC(=O)O)C(=O)NCC(=O)N[C@@H](CCCNC(N)=O)C(=O)N[C@H](C(=O)N[C@@H](CCCNC(=N)N)C(=O)N[C@H](C(=O)N[C@@H](CC(N)=O)C(=O)N[C@@H](CO)C(=O)N[C@@H](C)C(=O)N[C@@H](Cc1ccc(O)cc1)C(=O)N[C@@H](CCC(N)=O)C(=O)N[C@@H](CC(=O)O)C(=O)N[C@@H](CCCCN)C(=O)O)C(C)C)C(C)C)[C@@H](C)O)C(C)C", "note": "[cit-Agg] (H-VVLLVATEG[Cit]VRVNSAYQDK-OH)", "values": [{"measurement": "IC50", "setting": "HLA-DR1 (DRB1*01:01)", "result": 82.6, "unit": "nM"}, {"measurement": "IC50", "setting": "HLA-DR4 (DRB1*04:01)", "result": "> 5000", "unit": "nM"}]}
{"molecule": "SAVRLRSSVPGVR [Vim]", "values": [{"measurement": "IC50", "setting": "HLA-DR1 (DRB1*01:01)", "result": 76.1, "unit": "nM"}]}
{"molecule": "VVLLVATEGRVRVNSAYQDK [Agg]", "values": [{"measurement": "IC50", "setting": "HLA-DR1 (DRB1*01:01)", "result": 110, "unit": "nM"}, {"measurement": "IC50", "setting": "HLA-DR4 (DRB1*04:01)", "result": "> 5000", "unit": "nM"}]}
{"molecule": "citrullinated CII: native bovine type II collagen protein treated with PAD4 to convert Arg to Cit", "values": [{"measurement": "induction of autoimmune arthritis", "setting": "[1]; DR1 Tg mice immunized with 100 μg in CFA", "result": "induced autoimmune arthritis"}, {"measurement": "severity of arthritis compared with WT CII", "setting": "[1]; DR1 Tg mice, incidence, onset and severity score 0 to 4", "result": "no evidence that the disease was more severe than immunization with WT CII"}]}
{"molecule": "LQYMRADQAAGGLR [CII]", "values": [{"measurement": "IC50", "setting": "HLA-DR1 (DRB1*01:01)", "result": 82.9, "unit": "nM"}, {"measurement": "IC50", "setting": "HLA-DR4 (DRB1*04:01)", "result": 37.4, "unit": "nM"}]}
{"molecule": "CC(C)C[C@H](NC(=O)[C@H](CCCNC(=N)N)NC(=O)[C@@H](NC(=O)[C@H](C)NC(=O)[C@@H](N)CO)C(C)C)C(=O)N[C@@H](CCCNC(N)=O)C(=O)N[C@@H](CO)C(=O)N[C@@H](CO)C(=O)N[C@H](C(=O)N1CCC[C@H]1C(=O)NCC(=O)N[C@H](C(=O)N[C@@H](CCCNC(=N)N)C(=O)O)C(C)C)C(C)C", "note": "[cit-Vim] (H-SAVRL[Cit]SSVPGVR-OH)", "values": [{"measurement": "IC50", "setting": "HLA-DR1 (DRB1*01:01)", "result": 1.1, "unit": "nM"}]}
{"molecule": "CC[C@H](C)[C@H](NC(=O)[C@H](CCCNC(N)=O)NC(=O)[C@H](CC(N)=O)NC(=O)[C@@H](NC(=O)[C@H](Cc1ccccc1)NC(=O)[C@H](CC(=O)O)NC(=O)[C@H](CCC(N)=O)NC(=O)[C@@H](N)CC(N)=O)[C@@H](C)O)C(=O)N[C@@H](CC(N)=O)C(=O)N[C@@H](CCCCN)C(=O)N[C@@H](CC(C)C)C(=O)N[C@@H](CCCCN)C(=O)N[C@@H](CC(N)=O)C(=O)N[C@@H](CO)C(=O)O", "note": "[cit-Fib] (H-NQDFTN[Cit]INKLKNS-OH; N-terminus and C-terminus assumed)", "values": [{"measurement": "Cytokine WT/Cit Ratio, TNFα", "setting": "[2]", "result": "–"}, {"measurement": "Cytokine WT/Cit Ratio, IFNγ", "setting": "[2]", "result": 0.2}, {"measurement": "Cytokine WT/Cit Ratio, IL-6", "setting": "[2]", "result": 0.9}, {"measurement": "Cytokine WT/Cit Ratio, IL-10", "setting": "[2]", "result": 0.3}, {"measurement": "Cytokine WT/Cit Ratio, IL-17A", "setting": "[2]", "result": 1.0}, {"measurement": "IC50", "setting": "HLA-DR1 (DRB1*01:01)", "result": "> 4500", "unit": "nM"}]}
{"molecule": "NQDFTNRINKLKNS [Fib]", "values": [{"measurement": "Cytokine WT/Cit Ratio, TNFα", "setting": "[2]", "result": 1.3}, {"measurement": "Cytokine WT/Cit Ratio, IFNγ", "setting": "[2]", "result": 2.5}, {"measurement": "Cytokine WT/Cit Ratio, IL-6", "setting": "[2]", "result": 1.1}, {"measurement": "Cytokine WT/Cit Ratio, IL-10", "setting": "[2]", "result": 1.0}, {"measurement": "Cytokine WT/Cit Ratio, IL-17A", "setting": "[2]", "result": 1.4}, {"measurement": "IC50", "setting": "HLA-DR1 (DRB1*01:01)", "result": "> 4500", "unit": "nM"}, {"measurement": "binding to DR4 (in words)", "setting": "HLA-DR4 (DRB1*04:01); up to 40,000:1 nM ratio of competitor:indicator peptide", "result": "essentially undetectable"}]}
{"molecule": "CSCC[C@H](NC(=O)[C@H](Cc1ccc(O)cc1)NC(=O)[C@H](CCC(N)=O)NC(=O)[C@@H](N)CC(C)C)C(=O)N[C@@H](CCCNC(N)=O)C(=O)N[C@@H](C)C(=O)N[C@@H](CC(=O)O)C(=O)N[C@@H](CCC(N)=O)C(=O)N[C@@H](C)C(=O)N[C@@H](C)C(=O)NCC(=O)NCC(=O)N[C@@H](CC(C)C)C(=O)N[C@@H](CCCNC(=N)N)C(=O)O", "note": "[cit-CII] (H-LQYM[Cit]ADQAAGGLR-OH)", "values": [{"measurement": "IC50", "setting": "HLA-DR1 (DRB1*01:01)", "result": 121, "unit": "nM"}, {"measurement": "IC50", "setting": "HLA-DR4 (DRB1*04:01)", "result": 170, "unit": "nM"}]}
